From patent US20090123979A1, “Methods of reducing the inhibitory effect of a tannin on the enzymatic hydrolysis of cellulosic material” (Novozymes, Inc., priority 2007, published 2009) come the findings set out here.

Assay [1] has as its target T1, Trichoderma reesei CEL7B endoglucanase I (Trichoderma reesei, UniProt P07981).
T1 construct: made in house; host or cells: Aspergillus oryzae JaL250
Put plainly: CMC hydrolysis by CEL7B endoglucanase I with tannic acid. The conditions noted are these: 1 mM tannic acid, 50° C., 4 hours. It counts as biochemical. As to the method: (§1) The effect of tannic acid on Trichoderma reesei CEL7B endoglucanase I and Trichoderma reesei CEL5A endoglucanase II was also evaluated using carboxymethylcellulose (CMC) as substrate. The hydrolysis reactions were conducted in duplicate using the “mini-plate-scale” hydrolysis procedure described in Example 33, except that 1 mM tannic acid and 10 to 20 g of carboxymethylcellulose (CMC) and 1 to 20 mg of enzyme per liter 50 mM sodium acetate pH 5.0 were used at 50° C. for 4 hours. Soluble reducing sugars were analyzed by a p-hydroxybenzoic acid hydrazide (PHBAH) assay according to the method of Lever, 1972, Anal. Biochem. 47: 273-279, instead of by HPLC as described in Examples 30 and 33. Reactions without the addition of the enzymes served as controls to correct background absorption. Spectrophotometric measurements were performed using a SPECTRAMAX™ 340PC reader (Molecular Devices Corp., Sunnyvale, Calif., USA) with COSTAR® 96-well microplates (Cole-Parmer Instrument Co, Vernon Hills, Ill., USA).

The target of assay [2] is T2, Trichoderma reesei CEL5A endoglucanase II (Trichoderma reesei, UniProt P07982).
T2 construct: made in house
T2 sequence (P07982 22-418): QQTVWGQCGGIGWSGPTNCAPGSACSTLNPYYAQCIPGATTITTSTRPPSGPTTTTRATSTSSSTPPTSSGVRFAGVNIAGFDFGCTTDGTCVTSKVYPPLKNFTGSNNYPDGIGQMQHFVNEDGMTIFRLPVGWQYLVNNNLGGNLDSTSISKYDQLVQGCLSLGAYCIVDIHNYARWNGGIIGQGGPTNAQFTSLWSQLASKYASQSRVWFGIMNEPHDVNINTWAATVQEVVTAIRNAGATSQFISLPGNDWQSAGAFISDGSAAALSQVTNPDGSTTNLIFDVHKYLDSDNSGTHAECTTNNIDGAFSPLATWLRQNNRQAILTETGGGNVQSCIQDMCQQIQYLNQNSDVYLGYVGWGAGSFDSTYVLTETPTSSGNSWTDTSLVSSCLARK
Put plainly: PASC hydrolysis by CEL5A endoglucanase II with tannic acid. It counts as biochemical. The method, then: (§2) The inhibitory effect of tannic acid was determined on Trichoderma reesei CEL7A cellobiohydrolase 1, Trichoderma reesei CEL6A cellobiohydrolase II, Trichoderma reesei CEL7B endoglucanase 1, and Trichoderma reesei CEL5A endoglucanase II using PASC as substrate.
(§3) To quantify the inhibition, tannic acid was evaluated in the hydrolysis of PASC.

Assay [3] concerns the target T3, Cellulolytic Enzyme Composition #1.
T3 construct: other: PASC hydrolysis; mean ± SD; 0.01 g enzyme; Dixon plot linear regression intercept (1/Rate); other: AVICEL; rate from hydrolysis difference (%) at 0 and 6 hours; rate from hydrolysis difference; fused on or other part: The A. oryzae beta-glucosidase is the mature chain secreted behind the Humicola insolens endoglucanase V signal peptide, which is cleaved off
Put plainly: PASC hydrolysis by Cellulolytic Enzyme Composition #1 with tannic acid. It counts as biochemical, Trichoderma reesei. The note with it: mean ± SD, 0.01 g enzyme per liter, pH 5.0, 50° C., read-out: I50 (inhibitor concentration leading to 50% loss of hydrolysis rate). The text has this:
Initial hydrolysis rates were obtained from the first two hydrolysis time points (i.e., soluble sugar measurements) (with <20% hydrolysis extent in general, rate=(hydrolysis difference)/(time difference)). Double-reciprocal plots (1/(initial rate) vs 1/[cellulose] as function of tannic acid concentration) indicated a “mixed” type inhibition, but their complexity prevented extraction of simple inhibitor constants. Initial rate vs tannic acid concentration yielded an I50 (inhibitor concentration leading to 50% loss of hydrolysis rate) of 0.2±0.1 or 0.27±0.07 mM on PASC or AVICEL® hydrolysis, respectively

The target in assay [4] is T4, Trichoderma reesei CEL7A cellobiohydrolase I (Trichoderma reesei, UniProt P62694, INS458P/R459P).
T4 construct: made in house
T4 sequence (P62694 other isoform, or with tags, fused parts or gaps INS458P/R459P): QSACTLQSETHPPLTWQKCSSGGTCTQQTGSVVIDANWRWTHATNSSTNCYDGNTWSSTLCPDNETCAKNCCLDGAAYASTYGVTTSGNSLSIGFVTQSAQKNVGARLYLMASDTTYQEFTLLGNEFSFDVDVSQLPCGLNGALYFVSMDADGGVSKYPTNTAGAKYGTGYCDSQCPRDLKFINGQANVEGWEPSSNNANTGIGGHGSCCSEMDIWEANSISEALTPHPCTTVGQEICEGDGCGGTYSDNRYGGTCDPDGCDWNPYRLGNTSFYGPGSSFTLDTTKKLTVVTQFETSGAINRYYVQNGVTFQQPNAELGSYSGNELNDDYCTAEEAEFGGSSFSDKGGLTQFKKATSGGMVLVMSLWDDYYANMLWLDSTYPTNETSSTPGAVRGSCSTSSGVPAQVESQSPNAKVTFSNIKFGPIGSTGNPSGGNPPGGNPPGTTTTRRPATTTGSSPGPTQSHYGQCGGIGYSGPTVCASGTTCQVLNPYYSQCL
Put plainly: PASC hydrolysis by CEL7A cellobiohydrolase I with tannic acid. It counts as biochemical. As to the method:
as §2, §3

Assay [5] has as its target T5, Aspergillus oryzae CEL3A beta-glucosidase (Aspergillus oryzae, UniProt Q2UUD6).
T5 construct: made in house
Put plainly: Cellobiose hydrolysis by CEL3A beta-glucosidase with tannic acid. It counts as biochemical. The method, then:
The effect of tannic acid on Aspergillus oryzae CEL3A beta-glucosidase was also evaluated using a series of “mini-scale” hydrolysis reactions according to the procedure described in Example 30, except that 1 mM tannic acid (corresponding to 10 mM galloyl and 1 mM glucosyl constituents) and 2 g of cellobiose and 1 mg of beta-glucosidase per liter of 39 mM sodium acetate pH 5.0 were used. Reactions without the addition of the tannic acid served as controls. The reaction was monitored by HPLC as described in Example 30.
Tannic acid was also evaluated in the hydrolysis of cellobiose.

Assay [6] deals with T1, Trichoderma reesei CEL7B endoglucanase I. Put plainly: PASC hydrolysis by CEL7B endoglucanase I with tannic acid. In kind it is biochemical. As to the method:
as §2, §3

The target in assay [7] is T6, Trichoderma reesei CEL6A cellobiohydrolase II (Trichoderma reesei, UniProt P07987, P359R).
T6 construct: made in house; host or cells: Fusarium venenatum
T6 sequence (P07987 25-471 P359R): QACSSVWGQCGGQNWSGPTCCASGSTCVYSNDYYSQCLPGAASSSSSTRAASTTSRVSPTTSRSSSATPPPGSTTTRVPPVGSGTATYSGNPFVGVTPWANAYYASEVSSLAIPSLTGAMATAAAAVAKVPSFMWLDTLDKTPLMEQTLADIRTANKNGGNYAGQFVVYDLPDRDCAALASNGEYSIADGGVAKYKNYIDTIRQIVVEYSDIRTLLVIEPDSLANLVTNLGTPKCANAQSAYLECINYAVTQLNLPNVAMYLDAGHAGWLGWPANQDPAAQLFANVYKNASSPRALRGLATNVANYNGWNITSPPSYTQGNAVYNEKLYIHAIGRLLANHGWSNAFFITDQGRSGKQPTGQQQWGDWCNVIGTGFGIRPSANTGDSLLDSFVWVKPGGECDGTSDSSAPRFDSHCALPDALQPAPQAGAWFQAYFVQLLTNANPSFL
Put plainly: PASC hydrolysis by CEL6A cellobiohydrolase II with tannic acid. The note with it: 1 mM tannic acid; 2 g PASC per liter, over 4 hours. In kind it is biochemical. As to the method: as §2

Assay [8] deals with T2, Trichoderma reesei CEL5A endoglucanase II. Put plainly: CMC hydrolysis by CEL5A endoglucanase II with tannic acid. In kind it is biochemical. The conditions noted are these: 1 mM tannic acid, 50° C., 4 hours. The method, then: as §1
[9] abbreviates: 1 mM tannic acid, 2 g PASC per liter, over 4 hours.
Where [10] appears, read: PASC, 0.1 to 0.7 mM tannic acid.

T5 sequence (Q2UUD6 20-861): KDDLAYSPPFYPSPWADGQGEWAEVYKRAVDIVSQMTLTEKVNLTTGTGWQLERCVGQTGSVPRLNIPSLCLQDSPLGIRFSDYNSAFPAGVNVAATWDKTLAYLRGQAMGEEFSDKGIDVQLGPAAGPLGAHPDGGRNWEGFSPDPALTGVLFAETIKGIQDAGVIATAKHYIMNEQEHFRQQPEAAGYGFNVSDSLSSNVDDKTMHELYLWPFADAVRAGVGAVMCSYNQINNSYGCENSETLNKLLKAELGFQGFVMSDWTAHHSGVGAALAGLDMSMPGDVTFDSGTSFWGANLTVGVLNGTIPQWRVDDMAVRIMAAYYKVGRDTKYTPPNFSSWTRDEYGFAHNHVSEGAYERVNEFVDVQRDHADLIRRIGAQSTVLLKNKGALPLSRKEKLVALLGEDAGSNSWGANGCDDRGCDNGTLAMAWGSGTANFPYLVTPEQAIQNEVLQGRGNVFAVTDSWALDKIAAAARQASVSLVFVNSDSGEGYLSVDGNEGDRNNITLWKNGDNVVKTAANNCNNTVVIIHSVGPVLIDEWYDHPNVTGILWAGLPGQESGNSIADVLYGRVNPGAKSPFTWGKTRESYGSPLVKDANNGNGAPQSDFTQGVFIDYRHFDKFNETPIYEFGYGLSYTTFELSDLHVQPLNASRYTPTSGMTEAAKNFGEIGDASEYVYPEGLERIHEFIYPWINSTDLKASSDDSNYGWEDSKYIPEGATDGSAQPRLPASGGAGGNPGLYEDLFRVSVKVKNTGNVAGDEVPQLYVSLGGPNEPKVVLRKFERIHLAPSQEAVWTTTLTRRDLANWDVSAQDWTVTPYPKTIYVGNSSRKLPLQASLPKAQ
T1 sequence (P07981 23-459): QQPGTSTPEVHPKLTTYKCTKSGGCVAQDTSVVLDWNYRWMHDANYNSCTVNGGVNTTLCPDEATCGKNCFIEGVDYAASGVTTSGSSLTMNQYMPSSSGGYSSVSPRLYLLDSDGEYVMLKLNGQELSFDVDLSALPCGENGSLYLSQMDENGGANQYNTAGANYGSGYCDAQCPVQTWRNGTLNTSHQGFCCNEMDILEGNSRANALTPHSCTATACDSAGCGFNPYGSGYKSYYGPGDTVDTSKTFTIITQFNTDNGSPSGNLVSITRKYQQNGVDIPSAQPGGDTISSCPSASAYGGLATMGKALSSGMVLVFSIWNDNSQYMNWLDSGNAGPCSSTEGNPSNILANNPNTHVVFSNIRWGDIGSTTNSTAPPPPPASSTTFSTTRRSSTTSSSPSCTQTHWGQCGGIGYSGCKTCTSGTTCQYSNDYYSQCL

Turning to `O=C(OC[C@H]1O[C@@H](OC(=O)c2cc(O)c(O)c(OC(=O)c3cc(O)c(O)c(O)c3)c2)[C@H](OC(=O)c2cc(O)c(O)c(OC(=O)c3cc(O)c(O)c(O)c3)c2)[C@@H](OC(=O)c2cc(O)c(O)c(OC(=O)c3cc(O)c(O)c(O)c3)c2)[C@@H]1OC(=O)c1cc(O)c(O)c(OC(=O)c2cc(O)c(O)c(O)c2)c1)c1cc(O)c(O)c(OC(=O)c2cc(O)c(O)c(O)c2)c1` [tannic acid, Tannic acid], the “effect on CMC hydrolysis by CEL7B endoglucanase I” value in assay [1] was “significantly inhibited”. Further, the “effect on PASC hydrolysis by CEL5A endoglucanase II” value in assay [2] (setting [9]) is “significantly inhibited”. The IC50 was 320 ± 50 µM in assay [2] (PASC hydrolysis, mean ± SD, 0.04 g enzyme per liter, pH 5, 50° C., read-out: I50 for CEL5A EGII); 200 ± 100 µM in assay [3]; approximately 1000 µM in assay [4]; approximately 800 µM in assay [5] (cellobiose hydrolysis, 0.001 g enzyme per liter, pH 5, 50° C., read-out: I50 for CEL3A beta-glucosidase); 300 ± 200 µM in assay [6] (PASC hydrolysis, mean ± SD, 0.04 g enzyme per liter, pH 5, 50° C., read-out: I50 for CEL7B EGI). In assay [2] (setting [10]), the “type of inhibition (double reciprocal plots), CEL5A EGII” value is listed as “mixed”. Further, the “effect on PASC hydrolysis by CEL7A cellobiohydrolase I” value in assay [4] (setting [9]) is “significantly inhibited”. In assay [4] (setting [10]), the “type of inhibition (double reciprocal plots), CEL7A CBHI” value is recorded as “mixed”. The “effect on cellobiose hydrolysis by CEL3A beta-glucosidase” value in assay [5] (1 mM tannic acid, 2 g cellobiose and 1 mg beta-glucosidase per liter) is “significantly inhibited”. The “type of inhibition, CEL3A beta-glucosidase” value in assay [5] (cellobiose hydrolysis) is listed as “mixed”. Further, in assay [6] (setting [9]), the “effect on PASC hydrolysis by CEL7B endoglucanase I” value is “significantly inhibited”. Further, in assay [6] (setting [10]), the “type of inhibition (double reciprocal plots), CEL7B EGI” value is listed as “mixed”. Moreover, the “effect on PASC hydrolysis by CEL6A cellobiohydrolase II” value in assay [7] was “significantly inhibited”. In addition, the “effect on CMC hydrolysis by CEL5A endoglucanase II” value in assay [8] is given as “significantly inhibited”.
